{"source": "paper PMC8445441", "about": "“Elucidating the mechanism by which synthetic helper peptides sensitize Pseudomonas aeruginosa to multiple antibiotics” (PLoS Pathogens, 2021)", "key": {"P. aeruginosa HM-214": {"tested_on": "P. aeruginosa HM-214", "settings": "strain HM-214; antibiotic + D-11 (MICb/MICbc 128/4)", "procedure": "(§1) The MIC tests were performed in triplicate using broth microdilution in accordance with Clinical and Laboratory Standards Institute (CLSI) recommendations (http://iacld.ir/DL/public/CLSI-2018-M100-S28.pdf). Briefly, drugs were two-fold diluted in MHB and mixed with an equal volume of bacterial suspensions containing approximately 1 × 10^6 CFU/mL in 96-well microliter plate. After 18 h incubation at 37 °C, the MIC values were defined as the lowest concentrations of antibiotics with no visible growth of bacteria. […] Otherwise, 1/4 MIC of the peptide was used in the combination. […] If needed, membrane compounds PG, PE, PC, CL or LPS, or membrane stabilizers MgCl2 or CaCl2, or efflux pumps inhibitor PAβN were added to the broth medium to clarify the effect of other substances on the synergy between peptide and antibiotics. All the tests were performed in triplicate.\n(§2) The fractional inhibitory concentration (FIC) indices were calculated using the previously described formula FICI = FICa + FICb = MICac/MICa + MICbc/MICb. The FICI was interpreted according to EUCAST [65] as follows: synergistic, FICI≤0.5; additive, 0.5<FICI≤1; indifferent, 1<FICI<2; antagonistic, FICI ≥2. For the FICI calculations, twice the highest concentration tested was used in the cases where the MIC was not reached."}, "P. aeruginosa AUMC-Pa-1": {"tested_on": "P. aeruginosa AUMC-Pa-1", "settings": "strain AUMC-Pa-1; antibiotic + D-11 (MICb/MICbc 128/4)", "procedure": "as §1, §2"}, "P. aeruginosa AUMC-Pa-2": {"tested_on": "P. aeruginosa AUMC-Pa-2", "settings": "strain AUMC-Pa-2; antibiotic + D-11 (MICb/MICbc 64/4)", "procedure": "as §1, §2"}, "P. aeruginosa AUMC-Pa-4": {"tested_on": "P. aeruginosa AUMC-Pa-4", "test": "microbe, parasite or virus in culture", "settings": "strain AUMC-Pa-4", "summary_of_the_method": "(§3)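 After 18 h at 37 °C, the lowest concentration showing no visible growth was read as the MIC. Drugs were serially diluted two-fold in MHB and combined with an equal volume of inoculum (~1 × 10^6 CFU/mL), following CLSI broth microdilution; run in triplicate.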"}, "P. aeruginosa AUMC-Pa-6": {"tested_on": "P. aeruginosa AUMC-Pa-6", "test": "microbe, parasite or virus in culture", "settings": "strain AUMC-Pa-6", "summary_of_the_method": "as §3"}, "P. aeruginosa AUMC-Pa-5": {"tested_on": "P. aeruginosa AUMC-Pa-5", "test": "microbe, parasite or virus in culture", "settings": "strain AUMC-Pa-5", "summary_of_the_method": "as §3"}, "P. aeruginosa PAO1": {"tested_on": "P. aeruginosa PAO1", "test": "microbe, parasite or virus in culture", "settings": "S3 Table, PAO1", "summary_of_the_method": "as §3"}, "P. aeruginosa AUMC-Pa-3": {"tested_on": "P. aeruginosa AUMC-Pa-3", "test": "microbe, parasite or virus in culture", "settings": "strain AUMC-Pa-3", "summary_of_the_method": "as §3"}, "P. aeruginosa NR-31040": {"tested_on": "P. aeruginosa NR-31040", "test": "microbe, parasite or virus in culture", "parameters": "MICa: MIC of the antibiotic / MICac: MIC of the antibiotic in the combination: unit not given beside the values", "procedure": "as §1, §2"}, "P. aeruginosa ATCC27853": {"tested_on": "P. aeruginosa ATCC27853", "test": "microbe, parasite or virus in culture", "parameters": "MICa: MIC of the antibiotic / MICac: MIC of the antibiotic in the combination: unit not given beside the values", "settings": "strain ATCC27853", "procedure": "as §1, §2"}, "P. aeruginosa NR-31041": {"tested_on": "P. aeruginosa NR-31041", "test": "microbe, parasite or virus in culture", "parameters": "MICa: MIC of the antibiotic / MICac: MIC of the antibiotic in the combination: unit not given beside the values", "procedure": "as §1, §2"}, "P. aeruginosa PA14": {"tested_on": "P. aeruginosa PA14", "test": "microbe, parasite or virus in culture", "parameters": "MICa: MIC of the antibiotic / MICac: MIC of the antibiotic in the combination: unit not given beside the values", "settings": "strain PA14", "procedure": "as §1, §2"}, "P. aeruginosa PAK": {"tested_on": "P. aeruginosa PAK", "test": "microbe, parasite or virus in culture", "parameters": "MICa: MIC of the antibiotic / MICac: MIC of the antibiotic in the combination: unit not given beside the values", "settings": "strain PAK", "procedure": "as §1, §2"}, "[1]": {"tested_on": "clinical P. aeruginosa isolates", "test": "microbe, parasite or virus in culture", "settings": "Pseudomonas aeruginosa, 18 h, antibiotic alone", "summary_of_the_method": "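MIC is the lowest drug concentration showing no visible growth after 18 h at 37 °C. Two-fold dilutions in MHB were combined with an equal volume of bacterial suspension (about 1 × 10^6 CFU/mL), following CLSI broth microdilution, in triplicate.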"}, "[2]": {"settings": "antibiotic + D-11 (MICb/MICbc 128/4)"}, "[3]": {"settings": "antibiotic alone, unit not given"}, "[4]": {"settings": "with D-11 at MICbc 4, unit not given"}, "[5]": {"settings": "antibiotic + D-11 (MICb/MICbc 64/4)"}}, "note": "Where two headings read alike, the source gives them in different places.", "data": [{"smiles": "CN(C)c1cc(NC(=O)CNC(C)(C)C)c(O)c2c1C[C@H]1C[C@H]3[C@H](N(C)C)C(O)=C(C(N)=O)C(=O)[C@@]3(O)C(O)=C1C2=O", "note": "[Tigecycline]", "values": [{"measurement": "FICI", "setting": "P. aeruginosa HM-214", "result": 0.281}, {"measurement": "FICI", "setting": "P. aeruginosa AUMC-Pa-1", "result": 0.281}, {"measurement": "FICI", "setting": "P. aeruginosa AUMC-Pa-2", "result": 0.563}, {"measurement": "FICI", "setting": "P. aeruginosa AUMC-Pa-4; [2]", "result": 0.281}, {"measurement": "MICa: MIC of the antibiotic", "setting": "P. aeruginosa AUMC-Pa-4; [3]", "result": 8}, {"measurement": "MICac: MIC of the antibiotic in the combination", "setting": "P. aeruginosa AUMC-Pa-4; [4]", "result": 2}, {"measurement": "FICI", "setting": "P. aeruginosa AUMC-Pa-6; [5]", "result": 0.313}, {"measurement": "MICa: MIC of the antibiotic", "setting": "P. aeruginosa AUMC-Pa-6; [3]", "result": 8}, {"measurement": "MICac: MIC of the antibiotic in the combination", "setting": "P. aeruginosa AUMC-Pa-6; [4]", "result": 2}, {"measurement": "FICI", "setting": "P. aeruginosa AUMC-Pa-5; [5]", "result": 1.063}, {"measurement": "MICa: MIC of the antibiotic", "setting": "P. aeruginosa AUMC-Pa-5; [3]", "result": "8/8"}, {"measurement": "MICac: MIC of the antibiotic in the combination", "setting": "P. aeruginosa AUMC-Pa-5; [4]", "result": "8/8"}, {"measurement": "FICI", "setting": "P. aeruginosa PAO1; antibiotic + 2 μM D-11", "result": 0.313}, {"measurement": "FICI", "setting": "P. aeruginosa PAO1; antibiotic + 4 μM D-11", "result": 0.375}, {"measurement": "MICac: the MIC for the antibiotic in the combination", "setting": "P. aeruginosa PAO1; with 2 μM D-11", "result": 1, "unit": "µM"}, {"measurement": "MICac: the MIC for the antibiotic in the combination", "setting": "P. aeruginosa PAO1; with 4 μM D-11", "result": 1, "unit": "µM"}, {"measurement": "MICa: the MIC of antibiotics", "setting": "P. aeruginosa PAO1; antibiotic alone", "result": 4, "unit": "µM"}, {"measurement": "FICI", "setting": "P. aeruginosa AUMC-Pa-3; [2]", "result": 0.281}, {"measurement": "MICa: MIC of the antibiotic", "setting": "P. aeruginosa AUMC-Pa-3; [3]", "result": 4}, {"measurement": "MICac: MIC of the antibiotic in the combination", "setting": "P. aeruginosa AUMC-Pa-3; [4]", "result": 1}, {"measurement": "MIC", "setting": "P. aeruginosa NR-31040; Pseudomonas aeruginosa, NR31040, 18 h, read-out: MICa: MIC of the antibiotic", "result": 8, "unit": "µM"}, {"measurement": "FICI", "setting": "P. aeruginosa NR-31040; strain NR-31040, antibiotic + D-11 (MICb/MICbc 128/4)", "result": 0.094}, {"measurement": "MICac: MIC of the antibiotic in the combination", "setting": "P. aeruginosa NR-31040; strain NR-31040, with D-11 at MICbc 4, unit not given", "result": 0.5}, {"measurement": "FICI", "setting": "P. aeruginosa ATCC27853; antibiotic + D-11 (MICb/MICbc 32/4)", "result": 0.375}, {"measurement": "MICa: MIC of the antibiotic", "setting": "P. aeruginosa ATCC27853; [3]", "result": 4}, {"measurement": "MICac: MIC of the antibiotic in the combination", "setting": "P. aeruginosa ATCC27853; [4]", "result": 1}, {"measurement": "MIC", "setting": "P. aeruginosa NR-31041; Pseudomonas aeruginosa, NR31041, 18 h, read-out: MICa: MIC of the antibiotic", "result": 8.1, "unit": "µM"}, {"measurement": "FICI", "setting": "P. aeruginosa NR-31041; strain NR-31041, antibiotic + D-11 (MICb/MICbc 64/4)", "result": 0.188}, {"measurement": "FICI", "setting": "P. aeruginosa PA14; [2]", "result": 0.281}, {"measurement": "MICa: MIC of the antibiotic", "setting": "P. aeruginosa PA14; [3]", "result": 4}, {"measurement": "MICac: MIC of the antibiotic in the combination", "setting": "P. aeruginosa PA14; [4]", "result": 1}, {"measurement": "FICI", "setting": "P. aeruginosa PAK; [5]", "result": 0.313}, {"measurement": "MICa: MIC of the antibiotic", "setting": "P. aeruginosa PAK; [3]", "result": 4}, {"measurement": "MICac: MIC of the antibiotic in the combination", "setting": "P. aeruginosa PAK; [4]", "result": 1}, {"measurement": "MIC", "setting": "[1]; read-out: Antibiotic sensibility (MIC) of clinical P. aeruginosa isolate AUMC-Pa-1, strain AUMC-Pa-1", "result": 8, "unit": "µM"}, {"measurement": "MIC", "setting": "[1]; read-out: Antibiotic sensibility (MIC) of clinical P. aeruginosa isolate AUMC-Pa-2, strain AUMC-Pa-2", "result": 2, "unit": "µM"}, {"measurement": "MIC", "setting": "[1]; read-out: Antibiotic sensibility (MIC) of clinical P. aeruginosa isolate AUMC-Pa-3, strain AUMC-Pa-3", "result": 4, "unit": "µM"}, {"measurement": "MIC", "setting": "[1]; read-out: Antibiotic sensibility (MIC) of clinical P. aeruginosa isolate AUMC-Pa-4, strain AUMC-Pa-4", "result": 8, "unit": "µM"}, {"measurement": "MIC", "setting": "[1]; read-out: Antibiotic sensibility (MIC) of clinical P. aeruginosa isolate AUMC-Pa-5, strain AUMC-Pa-5", "result": 8, "unit": "µM"}, {"measurement": "MIC", "setting": "[1]; read-out: Antibiotic sensibility (MIC) of clinical P. aeruginosa isolate AUMC-Pa-6, strain AUMC-Pa-6", "result": 8, "unit": "µM"}, {"measurement": "MIC", "setting": "[1]; read-out: Antibiotic sensibility (MIC) of clinical P. aeruginosa isolate HM-214, strain HM-214", "result": 4, "unit": "µM"}, {"measurement": "MIC", "setting": "[1]; read-out: Antibiotic sensibility (MIC) of clinical P. aeruginosa isolate NR-31040, strain NR-31040", "result": 8, "unit": "µM"}, {"measurement": "MIC", "setting": "[1]; read-out: Antibiotic sensibility (MIC) of clinical P. aeruginosa isolate NR-31041, strain NR-31041", "result": 8, "unit": "µM"}]}]}
